Consider one substance from patent publication US20250339531A1, “DUX4 POLYPEPTIDES AND NUCLEIC ACIDS FOR TREATING INFLAMMATORY AND AUTOIMMUNE CONDITIONS” (Fred Hutchinson Cancer Center, priority 2021, published 2025).

For experiment [1], the system named is de novo protein synthesis. Kind of experiment: HPG Click-iT labeling of nascent proteins. The experiment is classed as cell-based, human. The note with it: FSHD myotubes and SuSa cells co-stained for H3.X/Y. As to the method: Cells were incubated for 30 minutes in DMEM or RPMI media depleted for methionine and cysteine (Gibco), followed by a 1-hour incubation in methionine-depleted media supplemented with 200 μM HPG (Sigma). Cells were fixed with 4% paraformaldehyde (Electron Microscopy Sciences) diluted in PBS for 10 minutes at room temperature and stained with Click-iT HPG Alexa Fluor 488 Protein Synthesis Assay Kit (Invitrogen) according to manufacturer's protocol.

A further experiment has as its system IDO1. Kind of experiment: Immunofluorescence of IFNG-induced IDO1 in FSHD MB200 myotubes. The experiment is classed as cell-based, human. The note with it: DUX4-positive versus DUX4-negative FSHD myotubes. As to the method:
All myoblast experiments were conducted in immortalized MB135 or MB200 myoblast cell lines (isolated from a control or FSHD2 subject, respectively cultured in Ham's F-10 Nutrient Mix (Gibco) supplemented with 15% fetal bovine serum (Hyclone), 100 U/100 μg/ml penicillin/streptomycin (Gibco), 1 μM dexamethasone (Sigma), and 10 ng/ml recombinant human basic fibroblast growth factor (PeproTech). To differentiate the myoblasts to myotubes, media was changed to DMEM supplemented with 10 μg/ml insulin (Sigma) and 10 μg/ml transferrin (Sigma). Cell lines containing doxycycline-inducible transgenes were additionally cultured with 2 μg/mL puromycin (Sigma). Transgenes were induced with 1 μg/mL of doxycycline (Sigma) for 4 hours prior to other treatments for a total of 20 hrs. The Kitra-SRS cells (RRID:CVCL_YI69) were provided by Dr. H. Otani and Osaka University (Nakai et al., 2019) and were cultured in DMEM supplemented with 10% fetal bovine serum (Hyclone) and 100 U/100 μg/ml penicillin/streptomycin (Gibco). Biological replicates consisted of independent but parallel experiments, such as simultaneously stimulating three cell culture plates with IFNγ. Technical replicates consisted of repeat measurements of the same biological sample, such as loading the same biological sample in triplicate for analysis by RT-qPCR. […]

Turning to “endogenous DUX4: DUX4 expressed endogenously in FSHD myotubes and SuSa cells”, the “HPG Click-iT signal in cells with endogenous expression” value in experiment [1] is given as “dramatic reduction in HPG Click-iT signal”. The “IFNG induction of IDO1” value in the experiment on IDO1 is “sufficient to prevent ISG induction by IFNG”.
